Reference: patent US11484529B2, “Desmethylanethole trithione derivatives for the treatment of diseases linked to mitochondrial reactive oxygen species (ROS) production” (OP2 Drugs, priority 2017, dated 2022)

How the values were obtained:
[1] = test system: isolated perfused rat heart; test: Global ischemia-reperfusion of isolated perfused rat heart (Langendorff); details: 10 μM AOL pretreatment, 30 min ischemia
Description: The consequences of 30 minutes' global ischemia followed by 120 minutes' reperfusion (FIG. 11) on contractility and tissue viability were studied on isolated perfused rat heart pretreated or not (control vehicle) with 10 μM AOL.
All procedures conformed to the UK Animals (Scientific Procedures) Act 1986 and the Guide for the Care and Use of Laboratory Animals published by the National Institutes of Health (NIH Publication No. 85-23. revised 1996). Male Wistar rats (250-300 g) were anesthetized by 3% isoflurane, heparinized and euthanized by a lethal IP injection of pentobarbital (130 mg/kg). […] Langendorff heart perfusions were performed (Garlid et al., 2006. Am. J. Physiol. Heart Circ. Physiol. 291(1):H152-60) and contractility was assessed by continuous measurement of the rate pressure product (RPP) thanks to a balloon placed in the left ventricle and connected to a pressure transducer. […]
At the end of the reperfusion period, hearts were stained with triphenyltetrazolium chloride (TTC): hearts were perfused for 7 minutes at 13 mL/min with a 12% (w/v) TTC solution in order to get a 1% final concentration in the heart. […] The surface of the necrotic and at-risk areas of each side were determined on each photography by planimetry (AlphaEase v5.5), and infarct size was expressed as a percentage of the total cross-sectional area of the heart, since total heart was subjected to ischemia.

[2] = test system: H460 carcinoma cells; test: Transwell cell migration (metastatic activity); assay type: cell-based, human; details: AOX 5 and 10 μM, 16 hours
Description: Cell migration assays were performed in Transwells (Corning Inc., 8.0-μm pore size). For migration assay, 2·10^4 cells in serum-free medium were added to the upper wells. Media containing 10% FBS were added to the lower wells. Cells that migrated through the filter after 16 hours were stained with 0.2% crystal violet and counted using the software Image J.
The Transwell test of cell migration has been utilized for this assay and the migration of H460 carcinoma cells has been measured in the presence of two different concentrations of AOX (5 and 10 μM) and compared to the effect of 100 μM N-acetyl cystein (NAC) as a positive control of cytosolic ROS production (FIG. 25).

[3] = test system: carcinoma cell lines A549 and H460; test: Cytotoxicity, sulforhodamine B (SRB) assay; assay type: cell-based, human; details: 48 hours
Description: Human non-small cell carcinoma cell line H460 and A549 were obtained from ATCC. Cells were cultured in growth medium consisting of DMEM (GIBCO), 10% FBS (GIBCO) and 100 units of penicillin and 100 μg/mL streptomycin (GIBCO). The cells were maintained in either 75-cm^2 T-flasks or 175-cm^2 T-flasks (BD Biosciences) in an incubator (model 3100 series, Forma Scientific, Marietta, Ohio) controlled at 37° C., 95% humidity, and 5% CO2. Cell culture medium was refreshed every other day. Every 2 to 3 days, H460 and A549 cultures were detached from the flasks using a 0.25% trypsin solution (Gibco) and subcultured. All cultures were maintained at 80-90% confluence at the time of subculture.
Cytotoxicity screening was carried out by sulforhodamine B colorimetric assay. A549 and H460 cells (2·10^3) were seeded in a 96-well plate, and after adherence, cells were incubated with 5 to 500 μM of AOL or AOX or control dimethyl sulfoxide (DMSO). Cytotoxicity was evaluated after 48 hours treatment sulforhodamine B (SRB) assay, according to Vichai (Vichai et al., 2006. Nat. Protoc. 1(3):1112-6).

Compound	infarcted tissue rescued (TTC staining) ([1]; 120 min reperfusion)	heart contractility (RPP) relative to control hearts ([1]; after 2 hours of reperfusion)	metastatic activity (cells crossing the membrane) [2]	concentrations without significant toxicity [3]	IC50 ([3]; Homo sapiens, 0 to 500 μM, read-out: IC50 for high dose toxicity) [µM]
COc1ccc(-c2cc(=S)ss2)cc1 [AOL, 5-(4-methoxyphenyl)-3H-1,2-dithiole-3-thione]	about 50%	about three times higher than control hearts	–	–	–
Oc1ccc(-c2cc(=S)ss2)cc1 [AOX, 5-(4-hydroxyphenyl)-3H-1,2-dithiole-3-thione]	–	–	absence of induction of metastatic activity	lower than 100 μM	134.8 ± 0.3
